The values below are quoted from earlier work in patent EP4302832A1, “PALBOCICLIB FORMULATION CONTAINING GLUCONO DELTA LACTONE” (Lotus Pharmaceutical Co., Ltd., priority 2022, dated 2024).

Like-named read-outs stand apart in the source and are kept apart here.

For data set [1] the following is noted: low pH (2.1-4.5).

Turning to `CC(=O)c1c(C)c2cnc(Nc3ccc(N4CCNCC4)cn3)nc2n(C2CCCC2)c1=O` [Palbociclib, 6-acetyl-8-cyclopentyl-5-methyl-2-(5-piperazin-1-yl-pyridin-2-ylamino)-8H-pyrido[2,3-d]-pyrimidin-7-one], the pKa (commonly the pH at which an ionisable group is half protonated) was approximately 4.1 (the pyridine nitrogen) and “approximately 7.3” (the secondary piperazine nitrogen). The solubility result in data set [1] is “water soluble”.
